# Tests used:
# [1] = target: T1, γ-Humulene Synthase (ag5) (SEQ ID No: 24) (Abies grandis, UniProt O64405); experiment: Product profile of recombinant γ-humulene synthase in vitro (preparative assay, GLC-MS); type: biochemical; details: from [1-3H]farnesyl diphosphate; total ion current chromatogram
# T1 construct: For further subcloning of the amplified, full-length cDNA into the pSBETa vector for high-level expression, the pGAG5 insert was amplified; made in house; host or cells: E. coli XL1-Blue/pGAG5 or E. coli BL21(DE3)/pSBAG5
# T1 sequence (O64405 1-593): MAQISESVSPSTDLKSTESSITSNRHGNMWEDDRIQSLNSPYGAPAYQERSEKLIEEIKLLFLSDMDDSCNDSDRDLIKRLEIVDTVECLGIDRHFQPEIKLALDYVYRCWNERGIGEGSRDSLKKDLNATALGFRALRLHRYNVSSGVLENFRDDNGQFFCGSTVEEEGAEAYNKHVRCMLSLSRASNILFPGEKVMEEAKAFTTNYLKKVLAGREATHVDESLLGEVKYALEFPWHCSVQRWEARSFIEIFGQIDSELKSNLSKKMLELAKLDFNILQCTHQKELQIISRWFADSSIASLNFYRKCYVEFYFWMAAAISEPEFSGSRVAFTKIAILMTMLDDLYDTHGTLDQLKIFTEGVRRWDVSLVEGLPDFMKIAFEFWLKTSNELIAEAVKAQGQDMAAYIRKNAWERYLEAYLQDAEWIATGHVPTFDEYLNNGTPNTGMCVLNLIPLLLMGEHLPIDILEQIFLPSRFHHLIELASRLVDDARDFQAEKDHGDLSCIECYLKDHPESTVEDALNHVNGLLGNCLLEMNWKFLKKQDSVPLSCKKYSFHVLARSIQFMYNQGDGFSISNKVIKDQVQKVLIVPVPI
# Experimental: (§1) For preparative incubations, the assay was scaled to 5 ml containing the total protein extracted from 100 ml of bacterial culture and 30 μM [1-^3H]farnesyl diphosphate, and the incubation time was extended to 8 h. Aliquots of the olefin fraction and the fraction containing oxygenated metabolites (diethyl ether eluate) were evaluated by liquid scintillation counting, and were analyzed by radio-GLC (Croteau, R. & Cane. D. E. (1985) Methods Enzymol. 110, 383-405; Satterwhite, D. M. & Croteau, R. (1988) J. Chromatogr. 452, 61-73) using a Gow-Mac 550P chromatograph that was equipped with a 3.18 mm×3.66 m stainless steel column packed with 5% OV17 (50% phenyl:50% methylsiloxane) on 100/120 mesh Gas Chrom Q (Alltech) and programmed from 150° C. to 220° C. at 2° C./min with He as carrier. The elution of co-injected standards was monitored with the Gow-Mac thermal conductivity detector (250° C. and 150 mA) and the radioactivity signal was continuously monitored with a Nuclear Chicago Model 8731 gas proportional counter; output data were processed using Perkin-Elmer Turbochrom Software.
# (§2) Expression of Sesquiterpene Synthase cDNAs AG4 (SEQ ID No:19) and AG5. (SEQ ID No:23) in E. coli. Both putative sesquiterpene cyclase cDNAs (SEQ ID Nos:19 and 23) were expressed in bacterial strains E. coli XL1-Blue/pGAG4, E. coli XL1-Blue/pGAG5, E. coli BL21(DE3)/pSBAG4, and E. coli BL21(DE3)/pSBAG5 as set forth in EXAMPLE 7. Bacteria were grown to A600=0.5 at 37° C. in 5 ml or 100 ml of LB medium supplemented with 100 μg ampicillin/ml or 30 μg kanamycin/ml as determined by the vector. Cultures were then induced by addition of 1 mM isopropyl-1-thio-β-D-galactopyranoside and grown for another 12 h at 20° C. Cells were harvested by centrifugation (2000×g, 10 min) and resuspended in either 1 ml or 5 ml sesquiterpene synthase assay buffer (EXAMPLE 2). Cells were disrupted by sonication (Braun-Sonic 2000 with microprobe at maximum power for 15 seconds at 0-4° C.) and the homogenates were cleared by centrifugation (18,000×g, 10 min). Preparative assays were employed to generate product for GLC-MS analysis, as set forth in EXAMPLE 2, with quantification of composition via the total ion current chromatogram.
# Product Profile of Recombinant γ-Humulene Synthase (SEQ ID No:24) In Vitro.
# [2] = target: T2, δ-Selinene Synthase (ag4) (SEQ ID No. 20) (Abies grandis, UniProt O64404); experiment: Product profile of recombinant δ-selinene synthase in vitro (preparative assay, GLC-MS); type: biochemical; details: from [1-3H]farnesyl diphosphate; total ion current chromatogram
# T2 construct: made in house; host or cells: E. coli XL1-Blue/pGAG4 or E. coli BL21(DE3)/pSBAG4
# T2 sequence (O64404 1-581): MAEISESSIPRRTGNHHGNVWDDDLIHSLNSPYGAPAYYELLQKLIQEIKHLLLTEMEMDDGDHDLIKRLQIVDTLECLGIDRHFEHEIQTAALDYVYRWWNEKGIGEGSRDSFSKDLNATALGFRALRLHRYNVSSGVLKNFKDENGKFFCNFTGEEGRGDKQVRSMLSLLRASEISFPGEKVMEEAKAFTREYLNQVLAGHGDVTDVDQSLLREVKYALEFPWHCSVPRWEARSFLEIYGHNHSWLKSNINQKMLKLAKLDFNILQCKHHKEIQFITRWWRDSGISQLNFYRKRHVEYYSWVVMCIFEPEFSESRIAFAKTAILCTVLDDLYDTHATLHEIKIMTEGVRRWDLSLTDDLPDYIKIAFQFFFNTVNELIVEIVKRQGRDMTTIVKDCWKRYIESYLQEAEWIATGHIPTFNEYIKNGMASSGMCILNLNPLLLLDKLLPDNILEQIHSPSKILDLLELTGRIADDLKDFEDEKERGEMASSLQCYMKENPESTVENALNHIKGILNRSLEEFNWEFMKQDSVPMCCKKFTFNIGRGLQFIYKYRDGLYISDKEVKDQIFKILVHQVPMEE
# Experimental: as §1, §2
# Product Profile of Recombinant δ-Selinene Synthase (SEQ ID No:20) In Vitro.
SMILES,"sesquiterpene products of γ-humulene synthase, % [1] [%]","sesquiterpene products of δ-selinene synthase, % [2] [%]"
"CC1=CCCC(C)=CCCC(C)=CCC1 [1,5,9-trimethylcyclododeca-1,5,9-triene (tent. 2 isomers), 1,5,9-trimethylcyclododeca-1,5,9-triene]",0.2,
CC(C)C1CCC2(C)C3CC4C(C13)C42C (stereo not drawn) [Cyclosativene],<0.1,
"CC(C)=C1C/C=C(\C)CC/C=C(\C)CC1 [E,E-Germacrene B]",,17.4
CC(C)=CC/C=C(/C)C1CC=C(C)CC1 (stereo not drawn) [E-α-Bisabolene],0.9,
C=CC(=C)CC/C=C(\C)CCC=C(C)C [E-β-Farnesene],1.3,
C=C(C)[C@@H]1C/C=C(\C)CC/C=C(\C)CC1 [Germacrene A],,6.7
C/C1=C\C=C(\C(C)C)CC/C(C)=C/CC1 [Germacrene C],,3.4
C=C1/C=C/[C@H](C(C)C)CC/C(C)=C/CC1 [Germacrene D],,0.8
"CC1=CCC(C(C)C)=C[C@@H]2[C@H](C)CC[C@H]12 [Guaia-6,9-diene]",,9.7
CC1(C)CCC[C@@]2(C)[C@@H]3CC4C([C@@H]31)C42C [Longicyclene],0.2,
C=C1[C@H]2CC[C@@H]3[C@H]2C(C)(C)CCC[C@]13C [Longifolene],11.8,
C=C1[C@@H]2CC[C@H]3[C@@H]2[C@@H](C(C)C)CC[C@@]13C [Sativene],3.1,
"CC1=CCCC2(C)CCC(=C(C)C)CC12 (stereo not drawn) [Seli-3,7(11)-diene]",,1.2
C=C1CCCC2(C)CCC(C(C)C)=CC12 (stereo not drawn) [Sibirene],15.1,0.7
"CC(C)=C1C/C=C(\C)CC/C=C(\C)CC1 [Z-E-Germacrene B (tent.), Z,E-Germacrene B]",0.1,1.3
CC1=CC2C(CC1)C(C)=CCC2C(C)C (stereo not drawn) [α-Amorphene],0.5,2.7
CC1=C[C@@H]2[C@@H](CC1)C(C)=CC[C@H]2C(C)C [α-Cadinene],,0.2
CC1=CC[C@H]2[C@H]3[C@@H]1[C@]2(C)CC[C@H]3C(C)C [α-Copaene],0.1,0.1
CC1=CC[C@@]23[C@@H]([C@@H]12)[C@H](C(C)C)CC[C@H]3C [α-Cubebene],0.1,

SMILES,"sesquiterpene products of γ-humulene synthase, % [1] [%]","sesquiterpene products of δ-selinene synthase, % [2] [%]"
C=C(C)[C@@H]1CC[C@H](C)C2=C(C1)[C@@H](C)CC2 [α-Guiaene],,0.2
C=C1CCCC(C)(C)[C@H]2C=C(C)CC[C@@H]12 [α-Himachalene],4.8,
C/C1=C\CC/C(C)=C/CC(C)(C)/C=C/C1 [α-Humulene],,0.7
CC1=CC[C@@H]2[C@@H]3[C@H]1[C@@]2(C)CCCC3(C)C [α-Longipinene],3.4,
C=C(C)[C@@H]1CC[C@@]2(C)CCC=C(C)[C@@H]2C1 [α-Selinene],,1.7
CC1=CC[C@@H]2[C@H]3[C@H](C(C)C)CC[C@]2(C)[C@@H]13 [α-Ylangene],2.7,0.1
C=C(CCC=C(C)C)[C@@H]1CC=C(C)CC1 [β-Bisabolene],3.9,0.7
C=C1CC/C=C(\C)CC[C@@H]2[C@@H]1CC2(C)C [β-Caryophyllene],,1.5
C=C1CC[C@@]23[C@@H]([C@@H]12)[C@H](C(C)C)CC[C@H]3C [β-Cubebene],0.1,
CC1CCC=C2CCC3C(C3(C)C)C21C (stereo not drawn) [β-Gurjunene],2.0,
CC1=C[C@H]2C(=C(C)CCCC2(C)C)CC1 [β-Himachalene],7.2,
C=C1CCC2C3C1C2(C)CCCC3(C)C (stereo not drawn) [β-Longipinene],1.5,
C=C1CCC2C3C(C(C)C)CCC2(C)C13 (stereo not drawn) [β-Ylangene],0.3,
CC(C)=CCC/C(C)=C1/CC=C(C)CC1 [γ-Bisabolene],1.9,
CC1=C[C@H]2[C@@H](CC1)C(C)=CCCC2(C)C [γ-Himachalene],5.8,
C=C1C=CC(C)(C)CCCC(C)=CCC1 [γ-Humulene],28.6,
CC1=C[C@H]2C(=C(C)CC[C@H]2C(C)C)CC1 [δ-Amorphene],0.5,6.4
CC1=C[C@@H]2C(=C(C)CC[C@H]2C(C)C)CC1 [δ-Cadinene],,1.4
CC1=C2C=C(C(C)C)CCC2(C)CCC1 (stereo not drawn) [δ-Selinene],,25.3

# — patent publication US6451576B1, “Sesquiterpene synthases from grand fir (Abies grandis), and methods of use” (Washington State University Research Foundation, priority 1998, dated 2002)
